Earlier results in patent US8791152B2, “Stable pharmaceutical composition containing docetaxel and a method of manufacturing the same” (SK Chemicals Co., Ltd., priority 2006, dated 2014).

Solubility in water: almost insoluble in water
Compound: CC(=O)O[C@@]12CO[C@@H]1C[C@H](O)[C@@]1(C)C(=O)[C@H](O)C3=C(C)[C@@H](OC(=O)[C@H](O)[C@@H](NC(=O)OC(C)(C)C)c4ccccc4)C[C@@](O)([C@@H](OC(=O)c4ccccc4)[C@H]21)C3(C)C [Docetaxel, docetaxel]
